Experimental data taken from patent publication US9637473B2, “Acrylamide derivatives as antimalarial agents” (priority 2013, dated 2017).
Counter-ions that a name gives are not always drawn.

system: P. Falciparum NF54; assay: Plasmodium falciparum in vitro assay ([3H]-hypoxanthine incorporation); format: cell-based; conditions: P. Falciparum NF54, erythrocytic stages in human red blood cells, 50% human serum
Outline: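 This in vitro antimalarial assay used P. falciparum erythrocytic stages cultured in human erythrocytes and measured [3H]-hypoxanthine incorporation. Radioactivity on the dried filters, placed in plastic foil with 10 mL scintillation fluid, was counted in a Betaplate liquid scintillation counter. Sigmoidal inhibition curves built in Microsoft Excel gave the IC50.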

Row | SMILES | IC50
1 | CN1CCC(N2C[C@H]3CC(N(Cc4ccc(N(C)c5ccncc5)cc4)C(=O)/C=C/c4ccc(C(F)(F)F)cc4)C[C@H]3C2)CC1 (single isomer, unassigned) [Example 64] | 0.012 µM

same assay, conditions: Plasmodium falciparum, Erythrocyte, P. Falciparum NF54, erythrocytic stages in human red blood cells, 50% human serum

Row | SMILES | IC50
2 | Cc1cc(Nc2ccc(CN(C(=O)/C=C/c3ccc(C(F)(F)F)cc3)C3CCN(Cc4nc(C)oc4C)CC3)cc2)ccn1 [Example 32, (E)-N-[1-(2,5-Dimethyl-oxazol-4-ylmethyl)-piperidin-4-yl]-N-[4-(2-methyl-pyridin-4-ylamino)-benzyl]-3-(4-trifluoromethyl-phenyl)-acrylamide] | 0.089 µM
3 | O=C(/C=C/c1ccc(C(F)(F)F)cc1)N(Cc1ccc(Nc2ccncn2)cc1)C1CCN(C2CCCC2)CC1 [Example 92, (E)-N-(1-Cyclopentyl-piperidin-4-yl)-N-[4-(pyrimidin-4-ylamino)-benzyl]-3-(4-trifluoromethyl-phenyl)-acrylamide] | 0.269 µM
4 | COc1ccc2nccc(Nc3ccc(CN(C(=O)/C=C/c4ccc(C(F)(F)F)cc4)C4CCN(C5CCCC5)CC4)cc3)c2c1 [Example 88, (E)-N-(1-Cyclopentyl-piperidin-4-yl)-N-[4-(6-methoxy-quinolin-4-ylamino)-benzyl]-3-(4-trifluoromethyl-phenyl)-acrylamide] | 0.021 µM
5 | CC(C)N1CCC(N(Cc2cncc(Nc3ccncn3)c2)C(=O)/C=C/c2ccc(C(F)(F)F)cc2)CC1 [Example 139, (E)-N-(1-Isopropyl-piperidin-4-yl)-N-[5-(pyrimidin-4-ylamino)-pyridin-3-ylmethyl]-3-(4-trifluoromethyl-phenyl)-acrylamide formate] | 0.355 µM
6 | CN(C)CCCOc1ccc(CN(C(=O)/C=C/c2ccc(C(F)(F)F)cc2)C2CCN(C3CCCC3)CC2)cc1 [Example 205, (E)-N-(1-Cyclopentyl-piperidin-4-yl)-N-[4-(3-dimethylamino-propoxy)-benzyl]-3-(4-trifluoromethyl-phenyl)-acrylamide] | 0.082 µM
7 | O=C(/C=C/c1ccc(C(F)(F)F)cc1)N(Cc1ccc(Nc2ccccc2)cc1)C1CCN(C2CCCC2)CC1 [Example 93, (E)-N-(1-Cyclopentyl-piperidin-4-yl)-N-(4-phenylamino-benzyl)-3-(4-trifluoromethyl-phenyl)-acrylamide] | 0.418 µM
8 | Cc1cc(Nc2ccc(CN(C(=O)/C=C/c3ccc(C(F)(F)F)cc3)C3CCN(Cc4nccs4)CC3)cc2)ccn1 [Example 40, (E)-N-[4-(2-Methyl-pyridin-4-ylamino)-benzyl]-N-(1-thiazol-2-ylmethyl-piperidin-4-yl)-3-(4-trifluoromethyl-phenyl)-acrylamide] | 0.341 µM
9 | CN(c1ccncc1)c1ccc(CN(C(=O)/C=C/c2cccc(Cl)c2)C2CCN(Cc3ccccc3)CC2)cc1 [Example 153, (E)-N-(1-Benzyl-piperidin-4-yl)-3-(3-chloro-phenyl)-N-[4-(methyl-pyridin-4-yl-amino)-benzyl]-acrylamide] | 0.087 µM
10 | CN1CCC(Nc2ccc(CN(C(=O)/C=C/c3ccc(C(F)(F)F)cc3)C3CCN(C4CCCC4)CC3)cn2)CC1 [Example 105, (E)-N-(1-Cyclopentyl-piperidin-4-yl)-N-[6-(1-methyl-piperidin-4-ylamino)-pyridin-3-ylmethyl]-3-(4-trifluoromethyl-phenyl)-acrylamide] | 0.152 µM
11 | Cc1cc(Nc2ccc(CN(C(=O)/C=C/c3ccc(C(F)(F)F)cc3)C3CCN(C4CCCC4)CC3)cn2)ncn1 [Example 109, (E)-N-(1-Cyclopentyl-piperidin-4-yl)-N-[6-(6-methyl-pyrimidin-4-ylamino)-pyridin-3-ylmethyl]-3-(4-trifluoromethyl-phenyl)-acrylamide] | 0.393 µM
12 | CN(c1ccncc1)c1ccc(CN(C(=O)/C=C/c2ccc(C(F)(F)F)cc2)[C@H]2CC[C@@H](N(C)C)CC2)cc1 [Example 191, (±)-cis-(E)-N-(4-Dimethylamino-cyclohexyl)-N-[4-(methyl-pyridin-4-yl-amino)-benzyl]-3-(4-trifluoromethyl-phenyl)-acrylamide] | 0.034 µM
13 | CN(c1ccncc1)c1ccc(CN(C(=O)/C=C/c2ccc(C(C)(C)C)cc2)C2CCN(Cc3ccccc3)CC2)cc1 [Example 144, (E)-N-(1-Benzyl-piperidin-4-yl)-3-(4-tert-butyl-phenyl)-N-[4-(methyl-pyridin-4-yl-amino)-benzyl]-acrylamide] | 0.174 µM
14 | Cc1cc(Nc2ccc(CN(CCCN(C)C)C(=O)/C=C/c3ccc(C(F)(F)F)cc3)cc2)ccn1 [Example 166, (E)-N-(3-Dimethylamino-propyl)-N-[4-(2-methyl-pyridin-4-ylamino)-benzyl]-3-(4-trifluoromethyl-phenyl)-acrylamide] | 0.068 µM
15 | Cc1cc(Nc2ccc(CN(C(=O)/C=C/c3ccc(C(F)(F)F)cc3)C3CCN(Cc4scnc4C)CC3)cc2)ccn1 [Example 35, (E)-N-[4-(2-Methyl-pyridin-4-ylamino)-benzyl]-N-[1-(4-methyl-thiazol-5-ylmethyl)-piperidin-4-yl]-3-(4-trifluoromethyl-phenyl)-acrylamide] | 0.243 µM
16 | Cc1cc(Nc2ccc(CN(C(=O)/C=C/c3ccc(C(F)(F)F)cc3)C3CCN(Cc4cnc5ccccn45)CC3)cc2)ccn1 [Example 38, (E)-N-(1-Imidazo[1,2-a]pyridin-3-ylmethyl-piperidin-4-yl)-N-[4-(2-methyl-pyridin-4-ylamino)-benzyl]-3-(4-trifluoromethyl-phenyl)-acrylamide] | 0.1 µM
17 | Cc1cc(Nc2ccc(CN(CC3CCN(C4CCN(C)CC4)CC3)C(=O)/C=C/c3ccc(C(F)(F)F)cc3)cc2)ccn1 [Example 172, (E)-N-(1′-Methyl-[1,4′]bipiperidinyl-4-ylmethyl)-N-[4-(2-methyl-pyridin-4-ylamino)-benzyl]-3-(4-trifluoromethyl-phenyl)-acrylamide] | 0.178 µM

Now from value to compound:

Row | IC50 | SMILES
18 | 0.355 µM | CN(c1ccncc1)c1ccc(CN(C(=O)/C=C/c2ccc(C(F)(F)F)cc2)C2CCN(Cc3nc4ccccc4n3C)CC2)cc1 [Example 21, (E)-N-[1-(1-Methyl-1H-benzoimidazol-2-ylmethyl)-piperidin-4-yl]-N-[4-(methyl-pyridin-4-yl-amino)-benzyl]-3-(4-trifluoromethyl-phenyl)-acrylamide]
19 | 0.334 µM | Cc1cc(Nc2ccc(CN(CC3(O)CCN(C)CC3)C(=O)/C=C/c3ccc(C(F)(F)F)cc3)cc2)ccn1 [Example 175, (E)-N-(4-Hydroxy-1-methyl-piperidin-4-ylmethyl)-N-[4-(2-methyl-pyridin-4-ylamino)-benzyl]-3-(4-trifluoromethyl-phenyl)-acrylamide]
20 | 0.213 µM | CC(C)N1CCC(N(Cc2cncc(N(C)c3cccnc3)c2)C(=O)/C=C/c2ccc(C(F)(F)F)cc2)CC1 [Example 134, (E)-N-(1-Isopropyl-piperidin-4-yl)-N-[5-(methyl-pyridin-3-yl-amino)-pyridin-3-ylmethyl]-3-(4-trifluoromethyl-phenyl)-acrylamide formate]
21 | 0.207 µM | Cc1cc(Nc2ccc(CN(C(=O)/C=C/c3ccc(C(F)(F)F)cc3)C3CCN(Cc4nccn4C)CC3)cc2)ccn1 [Example 41, (E)-N-[1-(1-Methyl-1H-imidazol-2-ylmethyl)-piperidin-4-yl]-N-[4-(2-methyl-pyridin-4-ylamino)-benzyl]-3-(4-trifluoromethyl-phenyl)-acrylamide]
22 | 0.084 µM | Cc1cc(Nc2ccc(CN(C(=O)/C=C/c3ccc(C(F)(F)F)cc3)C3CCN(Cc4cc(C)nn4C)CC3)cc2)ccn1 [Example 43, (E)-N-[1-(2,5-Dimethyl-2H-pyrazol-3-ylmethyl)-piperidin-4-yl]-N-[4-(2-methyl-pyridin-4-ylamino)-benzyl]-3-(4-trifluoromethyl-phenyl)-acrylamide]
23 | 0.084 µM | CN(c1ccncc1)c1ccc(CN(C(=O)/C=C/c2ccc(C(F)(F)F)cc2)C2CCN(Cc3ccc(Cl)c(Cl)c3)CC2)cc1 [Example 11, (E)-N-[1-(3,4-Dichloro-benzyl)-piperidin-4-yl]-N-[4-(methyl-pyridin-4-yl-amino)-benzyl]-3-(4-trifluoromethyl-phenyl)-acrylamide]
24 | 0.08 µM | Cc1cc(Nc2cncc(CN(C(=O)/C=C/c3ccc(C(F)(F)F)cc3)C3CCN(C(C)C)CC3)c2)ccn1 [Example 136, (E)-N-(1-Isopropyl-piperidin-4-yl)-N-[5-(2-methyl-pyridin-4-ylamino)-pyridin-3-ylmethyl]-3-(4-trifluoromethyl-phenyl)-acrylamide formate]
25 | 0.078 µM | CN(c1ccncc1)c1ccc(CN(C(=O)/C=C/c2ccc(C(F)(F)F)cc2)[C@@H]2CCN(C3CCCC3)C2)cc1 [Example 113, (E)-N-((R)-1-Cyclopentyl-pyrrolidin-3-yl)-N-[4-(methyl-pyridin-4-yl-amino)-benzyl]-3-(4-trifluoromethyl-phenyl)-acrylamide]
26 | 0.064 µM | CN(c1ccncc1)c1ccc(CN(C(=O)/C=C/c2ccc(C(F)(F)F)cc2)C2CCN(Cc3ccc(C#N)cc3)CC2)cc1 [Example 27, (E)-N-[1-(4-Cyano-benzyl)-piperidin-4-yl]-N-[4-(methyl-pyridin-4-yl-amino)-benzyl]-3-(4-trifluoromethyl-phenyl)-acrylamide]
27 | 0.064 µM | Cc1cc(Nc2ccc(CN(C(=O)/C=C/c3ccc(C(F)(F)F)cc3)C3CCN(Cc4c(C)noc4C)CC3)cc2)ccn1 [Example 44, (E)-N-[1-(3,5-Dimethyl-isoxazol-4-ylmethyl)-piperidin-4-yl]-N-[4-(2-methyl-pyridin-4-ylamino)-benzyl]-3-(4-trifluoromethyl-phenyl)-acrylamide]
28 | 0.051 µM | Cc1cc(Nc2ccc(CN(C(=O)/C=C/c3ccc(C(F)(F)F)cc3)C3CCN(Cc4ccccc4)CC3)cc2)ccn1 [Example 37, (E)-N-(1-Benzyl-piperidin-4-yl)-N-[4-(2-methyl-pyridin-4-ylamino)-benzyl]-3-(4-trifluoromethyl-phenyl)-acrylamide]
29 | 0.047 µM | Cc1cnccc1Nc1cncc(CN(C(=O)/C=C/c2ccc(C(F)(F)F)cc2)C2CCN(C(C)C)CC2)c1 [Example 137, (E)-N-(1-Isopropyl-piperidin-4-yl)-N-[5-(3-methyl-pyridin-4-ylamino)-pyridin-3-ylmethyl]-3-(4-trifluoromethyl-phenyl)-acrylamide formate]
